The results in this text go back to patent publication US7098372B1, “Pharmaceutical compositions and methods of using secreted frizzled related protein” (Wyeth, priority 1999, dated 2006).

The subject of test [1] is hOB SFRP mRNA. Kind of test: Northern blot analysis of hOB SFRP mRNA expression. It counts as cell-based, human. The text has this: The hOB SFRP gene fragment was identified using RADE (rapid analysis of differential expression) technology as described by Shiue 1997 Drug Develop. Res. 41: 142–159, the whole of which is incorporated herein. Three hOB cell lines (hOB-03-C5, hOB-03-CE6 and hOB-01-C1), representing three distinct stages of differentiation (proliferative, mature and preosteocytic, respectively) were used to isolate and identify SFRP. The hOB cell lines were established and cultured as previously described (Bodine et al. 1996 J. Bone Miner. Res. 11: 806–819; Bodine et al. 1996 Endocrinology 137: 4592–4604; Bodine et al. 1997 J. Cell. Biochem. 65: 368–387). […] However, in contrast to osteosarcoma cells (Stein and Lian 1993 Endocrine Rev. 14: 424–442), the hOB cell lines were faithful to the proliferation/differentiation relationship at the nonpermissive temperature (>37° C.) when the T-antigen mutant is inactivated. The cell lines were seeded into 150 mm dishes at ˜40,000 cells/cm^2 with growth medium [D-MEM/F-12 containing 10% (v/v) heat-inactivated fetal bovine serum (FBS), 1% (v/v) Penicillin-Streptomycin and 2 mM GlutaMAX-1] and incubated overnight at 34° C. The next day, the medium was removed, the cells were rinsed with phosphate-buffered saline (PBS), 20 ml of serum-free medium was added to the dishes [phenol red-free D-MEM/F-12 (Gibco/BRL) containing 0.25% (w/v) bovine serum albumin (BSA, Pentex crystallized, Bayer), 1% (v/v) Penicillin-Streptomycin, 2 mM GlutaMAX-1, […] ascorbate-2-phosphate (Wako), and 10 nM menadione sodium bisulfite (vitamin K3)], and the dishes were incubated at 39° C. for 24 hr. The next day, the medium was removed and the cells were treated at 39° C. for an additional 24 hr with 20 ml of fresh serum-free medium containing either vehicle (Control), 8 nM human parathyroid hormone 1–34 (PTH), 100 nM prostaglandin E2 (PGE2) or 0.1 nM human transforming growth factor-β1 (TGF-β1). PTH, PGE2 and TGF-β1 are known osteogenic agents (Whitfield and Morley 1995 Trends Pharmaceut. Sci. 16:382–386; Jee and Ma 1997 Bone 21:297–304; Centrella et al. 1994 Endocrine Rev. 15:27–39). After the treatment period, the dishes were rinsed with PBS and total cellular RNA was isolated from the nontreated and treated cells using TRIzol according to the manufacturers instructions (GibcoBRL). RADE was then performed with the isolated RNA samples as above; the regulated gene fragments were identified, cloned and sequenced. These experiments identified a total of 82 differentially expressed genes. A BLAST (basic local alignment search tool) search of the public data bases was performed on the RADE-obtained gene fragments; one of the gene fragments was highly homologous to mouse SFRP-1. This gene fragment was identified during RADE using the following primer pair: 5′-[…]-3′ (HT11A)3′ end (reverse primer) and 5′-[…]-3′ (H-AP1) 5′ end (forward primer), which sequences are SEQ ID NO 11 and SEQ ID NO 12, respectively. The expression and regulation of the gene fragment having homology to mouse cDNA SFRP-1 was confirmed by Northern blot analysis.
In order to confirm the regulation of hOB SFRP gene expression by different osteogenic agents (i.e., the DNA fragment identified in Example 1, above), the hOB cell lines were treated with PTH, PGE2, and TGF-β1; RNA was then isolated for Northern hybridizations. The experiments were performed as follows. The hOB cell lines were seeded into 150 mm dishes and treated as described in Example 1, except that polyA+ RNA was isolated from total cellular RNA using Oligotex mRNA maxi kits as described by the manufacturer (Qiagen). Northern blot analysis was performed using either the excised RADE hOB SFRP gene fragment, the cloned hOB SFRP gene fragment or the cloned full-length hOB SFRP cDNA as a ^32P-labeled probe (as described in Bodine et al. 1996 J. Bone Miner. Res. 11: 806–819, which is incorporated herein). Each of these probes detected a 4.4–4.6 kb message in the hOB cells. […]

The test system of test [2] is hOB SFRP mRNA. Kind of test: hOB SFRP mRNA levels after treatment with various agents (method not given). In kind it is cell-based, human. The following applies: various hOB cell lines.
Test [3] deals with T1, PTH-1 receptor (Homo sapiens, UniProt Q03431).
T1 construct: the hOB-01-C1-PS-09 cell line was selected for further characterization based on its high-level of PTH-1 receptor mRNA expression; endogenous in cells; host or cells: hOB-01-C1-PS-09 cells (ATCC PTA-785)
T1 sequence (Q03431 27-593): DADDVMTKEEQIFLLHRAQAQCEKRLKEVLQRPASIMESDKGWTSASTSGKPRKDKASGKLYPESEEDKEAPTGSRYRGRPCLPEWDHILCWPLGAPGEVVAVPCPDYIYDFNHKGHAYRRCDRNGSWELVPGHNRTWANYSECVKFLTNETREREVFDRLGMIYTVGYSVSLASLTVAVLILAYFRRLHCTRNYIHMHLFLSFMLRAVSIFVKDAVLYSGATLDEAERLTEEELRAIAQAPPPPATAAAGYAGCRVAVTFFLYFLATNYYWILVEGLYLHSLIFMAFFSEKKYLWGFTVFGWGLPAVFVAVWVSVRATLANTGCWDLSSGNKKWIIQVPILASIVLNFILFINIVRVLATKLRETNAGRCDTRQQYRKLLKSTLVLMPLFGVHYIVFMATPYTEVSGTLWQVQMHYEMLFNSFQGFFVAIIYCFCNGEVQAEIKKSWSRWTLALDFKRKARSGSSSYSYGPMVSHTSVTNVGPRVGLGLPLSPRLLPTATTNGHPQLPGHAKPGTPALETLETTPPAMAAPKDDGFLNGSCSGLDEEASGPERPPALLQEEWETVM
Kind of test: Intracellular cAMP assay in hOB-01-C1-PS-09 cells. It counts as cell-based. The settings on record: preincubation at 34° C. The method, then:
As mentioned above, the hOB-01-C1-PS-09 cell line was selected for further characterization based on its high-level of PTH-1 receptor mRNA expression. […] Consistent with this enhanced PTH-1 receptor expression, […] increasing concentrations of human PTH 1–34 (hPTH 1–34) for 10 min at 37° C. generates a dose-dependent 5- to 6-fold increase in intracellular cyclic-adenosine monophosphate (cAMP) levels (FIG. 24). […] Thus, both PTH-1 receptor expression and responsiveness are enhanced following inactivation of the tsA-209 T-antigen. One potential utility for this cAMP assay would be the ability to characterize the activities of PTH-analogs or -mimetics in an important target cell under conditions where levels of PTH-1 receptor expression are dramatically altered.
On the technique in general: cAMP levels reflect the balance of adenylyl cyclase and phosphodiesterase activity.

Test [4] relates to Wnt signaling. Kind of test: TCF-luciferase reporter gene assay of Wnt signaling. It counts as cell-based, human. The settings on record: transfected cDNA, hOB-01-C1-PS-09 or hOB-02-C1-PS-02 cells. The method, then:
SARP-2 or human Frzb-1 expression plasmids downregulates Wnt signaling (when compared to the pcDNA3.1 empty vector control) in the hOB cells as measured by the TCF-luciferase reporter gene assay. This assay is an authentic measurement of Wnt signaling and β-catenin nuclear activity.
In order to determine if the up-regulation of SFRP-1/FRP-1/SARP-2 gene expression results in an antagonism of the Wnt signaling pathway, hOB-03-CE6 cells were treated with PGE2 and the resulting cells probed with β-catenin monoclonal antibody. Overexpression of Wnt proteins in cells up-regulates a signaling protein known as β-catenin (reviewed in Moon et al. 1997 Cell 88: 725–728; Barth et al. 1997 Curr. Opin. Cell Biol. 9: 683–690; and Nusse 1997 Cell 89: 321–323). […] Therefore, hOB-03-CE6 cells were plated and treated with PGE2 as described in Example 1, except that total cellular protein was extracted and a Western blot analysis for β-catenin was performed using a monoclonal antibody to the protein (Transduction Laboratories) as previously described (Bodine et al. 1996 Endocrinology 137: 4592–4604; Melkonyan et al. 1997 Proc. Natl. Acad. Sci. USA 94: 13636–13641). […] Both human and rat SFRP-1/FRP-1/SARP-2, as well as human Frzb-1/FrzB/Fritz, suppressed TCF-luciferase activity in the hOB cells.

Test [5] relates to hOB-01-C1-PS-09 cells. Put plainly: Cell viability of hOB-01-C1-PS-09 cells stably transfected with hOB SFRP cDNA. In kind it is cell-based, human. The settings on record: stably transfected hOB-01-C1-PS-09 cells. The text has this: For these experiments, the cells were stably transfected with either an hOB SFRP cDNA (i.e., SFRP-1/FRP-1/SARP-2) mammalian expression plasmid or the empty vector (i.e., pcDNA3.1). The results are presented as the % of the day 0 control cells.
For these experiments, the cells were stably transfected with either an hOB SFRP cDNA (i.e., SFRP-1/FRP-1/SARP-2) mammalian expression plasmid or the empty vector (i.e., pcDNA3.1, which is obtained from Invitrogen of Carlsbad, Calif.). Standard cloning technigues were used (See Ausubel et al. 1997 Short Protocols in M<olecular Biology, 3rd edition, Wiley {New York}). The results are presented as the % of the day 0 control cells.

human parathyroid hormone 1–34 [PTH]: the “regulation of SFRP mRNA” value in test [1] (SaOS-2 human osteosarcoma cells, 24 hr, 37° C.) was “not regulated”. Further, in test [1] (hOB-01-C1 cells, 8 nM), the “suppression of basal hOB SFRP expression” value turned out to be 35%. The “effect on hOB SFRP message expression” value in test [2] is reported as “suppresses”. Besides, in test [3], the “increase in cAMP concentrations” value is “does not result in a subsequent increase”.

B1: SFRP-1/FRP-1/SARP-2: human osteoblast secreted frizzled related protein, SEQ ID NO 2, expressed from transfected cDNA in pcDNA3.1 (protein, listed as Homo sapiens)
chain: MGIGRSEGGRRGAALGVLLALGAALLAVGSASEYDYVSFQSDIGPYQSGRFYTKPPQCVDIPADLRLCHNVGYKKMVLPNLLEHETMAEVKQQASSWVPLLNKNCHAGTQVFLCSLFAPVCLDRPIYPCRWLCEAVRDSCEPVMQFFGFYWPEMLKCDKFPEGDVCIAMTPPNATEASKPQGTTVCPPCDNELKSEAIIEHLCASEFALRMKIKEVKKENGDKKIVPKKKKPLKLGPIKKKDLKKLVLYLKNGADCPCHQLDNLSHHFLIMGRKVKSQYLLTAIHKWDKKNKEFKNFMKKMKNHECPTFQSVFK
As to B1, the TCF-luciferase activity result in test [4] is on record as “suppressed”. Further, in test [5], the “rate of cell death on overexpression versus empty vector” value is on record as “accelerates the rate of cell death”.
